From patent publication US20160214958A1, “COMPOUNDS AND USE FOR TREATING CANCER” (GLIONOVA AB, priority 2013, published 2016)

What follows are molecules tested on glioma stem cell line U3013 (assay: In vitro cancer cell and CSC viability assay (ATP quantification, CellTiterGlo)). Details: Homo sapiens; U3013, 24 hours exposure; read-out: In vitro efficacy (viability) EC50.
Assay type: cell-based, human
Description: The ability of Examples S1-S23 to selectively induce cytotoxicity in glioma/glioblastoma cancer cells or glioma/glioblastoma cancer stem cells was determined by quantification of ATP production in glioma stem cell line U3013 in the presence of using CellTiterGlo reagent (Promega). Cells were exposed to compound in serial dilution in the range 1 nM to 50 µM for 24 hours and viability assessed with respect to negative control (dmso, no cell death) and positive control (staurosporine, full cell death). […] The EC50 of S10 remained largely similar at 2, 3 and 4 days of incubation. […] The individual isomers (S21-S23) of racemic S10 were evaluated in order to determine the enantiospecific pharmacology of the individual isomers.
Negative (100% DMSO) and positive (10 mM S10 in 100% DMSO) controls were placed in rows 1-4 and 5-8, respectively, of column 12. The wells were diluted with 190 μl of the corresponding growth media and 5 μl of each well of compound solution transferred to quadruplicate wells of a sterile 384-well black clear bottom plate (BD Falcon) containing GSC at 70% confluency in 45 μl growth media. The plate was incubated for 24 hours, after which the plate was removed from the incubator and each well imaged in bright-field using an Operetta Imaging system (PerkinElmer) at 37° C. and 5% CO2 to determine vacuole accumulation at each concentration. The plate was then allowed to cool to room temperature and each well treated with 25 μl freshly CellTiterGlo (Promega) reagent. The plate was shaken for 15 minutes and luminescence measured using a Victor3 (Perkin Elmer) microtiterplate reader. Total luminescence was normalized relative to control and curve fitting performed using GraphPad Prism (v6.02) software.
For OC(c1cc([C@]23CC4CC[C@H](C[C@H]4C2)C3)nc2c(Cl)cc(Cl)cc12)C1CCCCN1 (stereo partly drawn) [Compound S2, (6,8-dichloro-2-((2R,3aS,5R)-octahydro-1H-2,5-methanoinden-2-yl)quinolin-4-yl)(piperidin-2-yl)methanol], the EC50 was 0.41 µM. In the case of O[C@H](c1cc(-c2ccc(C(F)(F)F)cc2)nc2ccccc12)[C@@H]1CCCCN1 (racemic) [Compound S26, mixture of (R)-((S)-piperidin-2-yl)(2-(4-(trifluoromethyl)phenyl)quinolin-4-yl)methanol and (S)-((R)-piperidin-2-yl)(2-(4-(trifluoromethyl)phenyl)quinolin-4-yl)methanol], the EC50 is reported as 13.5 µM. Molecule OC(c1cc(-c2ccccc2)nc2cc(Cl)ccc12)C1CCCCN1 (stereo not shown) [Compound S11, (7-chloro-2-phenylquinolin-4-yl)(piperidin-2-yl)methanol] has an EC50 of 2.69 µM. For OC(c1cc(-c2cccc(Cl)c2)nc2ccccc12)C1CCCCN1 (stereo not shown) [Compound S6, (2-(3-chlorophenyl)quinolin-4-yl)(piperidin-2-yl)methanol], the EC50 was 1.25 µM. For O[C@H](c1cc(-c2ccc(C(F)(F)F)cc2)nc2ccccc12)[C@H]1CCCCN1 (racemic) [Compound S28, mixture of (R)-((R)-piperidin-2-yl)(2-(4-(trifluoromethyl)phenyl)quinolin-4-yl)methanol and (S)-((S)-piperidin-2-yl)(2-(4-(trifluoromethyl)phenyl)quinolin-4-yl)methanol], the EC50 was 14.6 µM. O[C@@H](c1cc(-c2ccc(Cl)cc2)nc2ccccc12)[C@@H]1CCCCN1 [Compound S22, (S)-(2-(4-chlorophenyl)quinolin-4-yl)((S)-piperidin-2-yl)methanol] showed an EC50 of 10.5 µM. In the case of Cc1ccc2nc(Nc3ccc(Cl)cc3)cc(C(O)C3CCCCN3)c2c1 (stereo not shown) [Compound S3, (2-((4-chlorophenyl)amino)-6-methylquinolin-4-yl)(piperidin-2-yl)methanol], the EC50 is reported as 0.73 µM. OC(c1cc(-c2ccc(Cl)cc2)nc2c(Cl)cccc12)C1CCCCN1 (stereo not shown) [Compound S4, (8-chloro-2-(4-chlorophenyl)quinolin-4-yl)(piperidin-2-yl)methanol] showed an EC50 of 1.03 µM. For OC(c1cc(C(F)(F)F)nc2c(Cl)cc(Cl)cc12)C1CCCCN1 (stereo not shown) [Compound S17, (6,8-dichloro-2-(trifluoromethyl)quinolin-4-yl)(piperidin-2-yl)methanol], the EC50 was 9.6 µM. For OC(c1cc(-c2ccccc2)nc2c(Cl)cc(Cl)cc12)C1CCCCN1 (stereo not shown) [Compound S5, (6,8-dichloro-2-phenylquinolin-4-yl)(piperidin-2-yl)methanol], the EC50 was 1.1 µM. Molecule CN(Cc1ccc(-c2cc(C(O)C3CCCCN3)c3ccccc3n2)cc1)C(=O)OC(C)(C)C (stereo not shown) [Compound S9, tert-butyl 4-(4-(hydroxy(piperidin-2-yl)methyl)quinolin-2-yl)benzyl(methyl)carbamate] has an EC50 of 2.25 µM. For OC(c1cc(C2CCCCC2)nc2ccccc12)C1CCCCN1 (stereo not shown) [Compound S18, (2-cyclohexylquinolin-4-yl)(piperidin-2-yl)methanol], the EC50 was 12.7 µM. With CCCN(CCC)C(=O)c1ccc(-c2cc([C@@H](O)[C@@H]3CCCCN3)c3ccccc3n2)cc1 (racemic) [Compound S25, mixture of 4-(4-((R)-hydroxy((S)-piperidin-2-yl)methyl)quinolin-2-yl)-N,N-dipropylbenzamide and 4-(4-((S)-hydroxy((R)-piperidin-2-yl)methyl)quinolin-2-yl)-N,N-dipropylbenzamide] the EC50 was 35.4 µM. Work on OC(c1cc(-c2ccccc2)nc2c1ccc1ccccc12)C1CCCCN1 (stereo not shown) [Compound S1, (2-phenylbenzo[h]quinolin-4-yl)(piperidin-2-yl)methanol] yielded an EC50 of 0.39 µM. For COC(c1cc(-c2ccc(Cl)cc2)nc2ccccc12)C1CCCCN1 (stereo not shown) [Compound S14, 2-(4-chlorophenyl)-4-(methoxy(piperidin-2-yl)methyl)quinoline], the EC50 was 5.62 µM. OC(c1cc(-c2ccccc2)nc2ccc(Cl)cc12)C1CCCCN1 (stereo not shown) [Compound S13, (6-chloro-2-phenylquinolin-4-yl)(piperidin-2-yl)methanol] showed an EC50 of 3.62 µM. In the case of CN1CCCCC1C(O)c1cc(-c2ccc(Cl)cc2)nc2ccccc12 (stereo not shown) [Compound S19, (2-(4-chlorophenyl)quinolin-4-yl)(1-methylpiperidin-2-yl)methanol], the EC50 is reported as 19.3 µM. COc1ccc(-c2cc(C(O)C3CCCCN3)c3ccccc3n2)cc1 (stereo not shown) [Compound S15, (2-(4-methoxyphenyl)quinolin-4-yl)(piperidin-2-yl)methanol] gave an EC50 of 7.59 µM. For O[C@H](c1cc(-c2ccc(Cl)cc2)nc2ccccc12)[C@H]1CCCCN1 [Compound S23, (R)-(2-(4-chlorophenyl)quinolin-4-yl)((R)-piperidin-2-yl)methanol], the EC50 was 9.95 µM. O[C@H](c1cc(-c2ccc(C(F)(F)F)nc2)nc2ccccc12)[C@@H]1CCCCN1 (racemic) [Compound S27, mixture of (R)-((S)-piperidin-2-yl)(2-(6-(trifluoromethyl)pyridin-3-yl)quinolin-4-yl)methanol and (S)-((R)-piperidin-2-yl)(2-(6-(trifluoromethyl)pyridin-3-yl)quinolin-4-yl)methanol] was tested, and the EC50 was 38 µM. For C#Cc1ccc(-c2cc(C(O)C3CCCCN3)c3ccccc3n2)cc1 (stereo not shown) [Compound S8, (2-(4-ethynylphenyl)quinolin-4-yl)(piperidin-2-yl)methanol], the EC50 was 1.69 µM. For OC(c1cc(-c2ccc(Cl)cc2Cl)nc2ccccc12)C1CCCCN1 (stereo not shown) [Compound S12, (2-(2,4-dichlorophenyl)quinolin-4-yl)(piperidin-2-yl)methanol], the EC50 was 3.22 µM. Molecule OC(c1cc(-c2ccc(Cl)cc2)nc2ccccc12)C1CCCN1 (stereo not shown) [Compound S16, (2-(4-chlorophenyl)quinolin-4-yl)(pyrrolidin-2-yl)methanol] has an EC50 of 8.72 µM. OC(c1cc(-c2ccc(Cl)c(Cl)c2)nc2ccccc12)C1CCCCN1 (stereo not shown) [Compound S7, (2-(3,4-dichlorophenyl)quinolin-4-yl)(piperidin-2-yl)methanol] gave an EC50 of 1.59 µM. Cc1ccc(-c2cc([C@@H](O)[C@@H]3CCCCN3)c3ccccc3n2)cc1C#N (racemic) [Compound S24, mixture of 5-(4-((R)-hydroxy((S)-piperidin-2-yl)methyl)quinolin-2-yl)-2-methylbenzonitrile and 5-(4-((S)-hydroxy((R)-piperidin-2-yl)methyl)quinolin-2-yl)-2-methylbenzonitrile] gave an EC50 of 32.1 µM.

Same assay, conditions: U3013, 24 hours exposure
With O[C@H](c1cc(-c2ccc(C(F)(F)F)nc2)nc2ccccc12)[C@H]1CCCCN1 (mixture of isomers) [Compound S29, mixture of (R)-((R)-piperidin-2-yl)(2-(6-(trifluoromethyl)pyridin-3-yl)quinolin-4-yl)methanol and (S)-((S)-piperidin-2-yl)(2-(6-(trifluoromethyl)pyridin-3-yl)quinolin-4-yl)methanol] the “In vitro efficacy (viability) EC50” value was “No activity”.

Same assay, conditions: individual isomers of racemic S10
In the case of O[C@@H](c1cc(-c2ccc(Cl)cc2)nc2ccccc12)[C@@H]1CCCCN1 [Compound S22, (S)-(2-(4-chlorophenyl)quinolin-4-yl)((S)-piperidin-2-yl)methanol], the “potency with respect to S10 (viability)” value is reported as “significantly attenuated activity”. For O[C@H](c1cc(-c2ccc(Cl)cc2)nc2ccccc12)[C@H]1CCCCN1 [Compound S23, (R)-(2-(4-chlorophenyl)quinolin-4-yl)((R)-piperidin-2-yl)methanol], the “potency with respect to S10 (viability)” value was “significantly attenuated activity”.
